In patent publication US11135234B2, “Effective aminoglycoside antibiotic for multidrug-resistant bacteria” (MICROBIAL CHEMISTRY RESEARCH FOUNDATION, priority 2015, dated 2021):
Converted amounts (≈) assume the structure as drawn.

Experiments:
S. marcescens GN6944 = assay: MIC, agar plate dilution method, S. marcescens GN6944; format: cell-based, Serratia marcescens; conditions: S. marcescens GN6944, GM-resistant; for MIC: Serratia marcescens, read-out: minimal inhibitory concentration (MIC)
Method in brief: (§1)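 Strains were tested on agar plates containing diluted compound, and the MIC (μg/mL) was recorded according to the Japan Society of Chemotherapy protocol.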

P. aeruginosa MSC17707 = assay: MIC, agar plate dilution method, P. aeruginosa MSC17707; format: cell-based, Pseudomonas aeruginosa; conditions: for minimal inhibitory concentration (MIC): P. aeruginosa MSC17707, AMK-resistant; for MIC: Pseudomonas aeruginosa, MSC17707, P. aeruginosa MSC17707, AMK-resistant, read-out: minimal inhibitory concentration (MIC)
Method in brief: as §1

P. aeruginosa PAO1 = assay: MIC, agar plate dilution method, P. aeruginosa PAO1; format: cell-based, Pseudomonas aeruginosa; conditions: for minimal inhibitory concentration (MIC): P. aeruginosa PAO1, Sensitive bacterium; for MIC: Pseudomonas aeruginosa, PAO1, P. aeruginosa PAO1, Sensitive bacterium, read-out: minimal inhibitory concentration (MIC)
Method in brief: as §1

S. marcescens TH-0447 = assay: MIC, agar plate dilution method, S. marcescens TH-0447; format: cell-based, Serratia marcescens; conditions: for minimal inhibitory concentration (MIC): S. marcescens TH-0447, AMK-resistant; for MIC: Serratia marcescens, TH0447, S. marcescens TH-0447, AMK-resistant, read-out: minimal inhibitory concentration (MIC)
Method in brief: as §1

S. aureus RN4220 = assay: MIC, agar plate dilution method, S. aureus RN4220; format: cell-based, Staphylococcus aureus; conditions: for minimal inhibitory concentration (MIC): S. aureus RN4220, Sensitive bacterium; for MIC: Staphylococcus aureus, RN4220, S. aureus RN4220, Sensitive bacterium, read-out: minimal inhibitory concentration (MIC)
Method in brief: as §1

[1] = tested on: K. pneumoniae ATCC BAA-1705; assay: MIC, agar plate dilution method, K. pneumoniae ATCC BAA-1705; format: cell-based, Klebsiella pneumoniae; conditions: for minimal inhibitory concentration (MIC): K. pneumoniae ATCC BAA-1705, KPC-producing strain; for MIC: Klebsiella pneumoniae, ATCCBAA1705, K. pneumoniae ATCC BAA-1705, KPC-producing strain, read-out: minimal inhibitory concentration (MIC)
Method in brief: as §1

S. aureus MF490 = assay: MIC, agar plate dilution method, S. aureus MF490; format: cell-based, Staphylococcus aureus; conditions: for minimal inhibitory concentration (MIC): S. aureus MF490, MRSA; for MIC: Staphylococcus aureus, MRSA, read-out: minimal inhibitory concentration (MIC)
Method in brief: as §1

S. aureus RN4220/pMS520 = assay: MIC, agar plate dilution method, S. aureus RN4220/pMS520; format: cell-based, Staphylococcus aureus; conditions: for minimal inhibitory concentration (MIC): S. aureus RN4220/pMS520, MRSA; for MIC: Staphylococcus aureus, MRSA, read-out: minimal inhibitory concentration (MIC), S. aureus RN4220/pMS520, MRSA
Method in brief: as §1

E. faecium ATCC19434 = assay: MIC, agar plate dilution method, E. faecium ATCC19434; format: cell-based, Enterococcus faecium; conditions: for minimal inhibitory concentration (MIC): E. faecium ATCC19434; for MIC: Enterococcus faecium, ATCC19434, E. faecium ATCC19434, read-out: minimal inhibitory concentration (MIC)
Method in brief: as §1

P. aeruginosa MSC01035 = assay: MIC, agar plate dilution method, P. aeruginosa MSC01035; format: cell-based, Pseudomonas aeruginosa; conditions: P. aeruginosa MSC01035, ABK-resistant; for MIC: Pseudomonas aeruginosa, read-out: minimal inhibitory concentration (MIC)
Method in brief: as §1

[2] = tested on: K. pneumoniae ATCC BAA-2146; assay: MIC, agar plate dilution method, K. pneumoniae ATCC BAA-2146; format: cell-based, Klebsiella pneumoniae; conditions: for minimal inhibitory concentration (MIC): K. pneumoniae ATCC BAA-2146, NDM-producing strain; for MIC: Klebsiella pneumoniae, ATCCBAA2146, K. pneumoniae ATCC BAA-2146, NDM-producing strain, read-out: minimal inhibitory concentration (MIC)
Method in brief: as §1

E. coli JM109/pMW218 = assay: MIC, agar plate dilution method, E. coli JM109/pMW218; format: cell-based, Escherichia coli; conditions: for minimal inhibitory concentration (MIC): E. coli JM109/pMW218, Sensitive bacterium; for MIC: Escherichia coli, JM109/PMW218, E. coli JM109/pMW218, Sensitive bacterium, read-out: minimal inhibitory concentration (MIC)
Method in brief: as §1

[3] = tested on: A. baumannii ATCC BAA-1710; assay: MIC, agar plate dilution method, A. baumannii ATCC BAA-1710; format: cell-based, Acinetobacter baumannii; conditions: for minimal inhibitory concentration (MIC): A. baumannii ATCC BAA-1710, MDRA; for MIC: Acinetobacter baumannii, ATCCBAA1710, A. baumannii ATCC BAA-1710, MDRA, read-out: minimal inhibitory concentration (MIC)
Method in brief: as §1

P. aeruginosa PAO1/GN315 = assay: MIC, agar plate dilution method, P. aeruginosa PAO1/GN315; format: cell-based, Pseudomonas aeruginosa; conditions: for minimal inhibitory concentration (MIC): P. aeruginosa PAO1/GN315, AMK-resistant; for MIC: Pseudomonas aeruginosa, read-out: minimal inhibitory concentration (MIC), P. aeruginosa PAO1/GN315, AMK-resistant
Method in brief: as §1

Row | SMILES | minimal inhibitory concentration (MIC) (S. marcescens GN6944) [mg/L] | minimal inhibitory concentration (MIC) (P. aeruginosa MSC17707) [mg/L] | minimal inhibitory concentration (MIC) (P. aeruginosa PAO1) [mg/L] | minimal inhibitory concentration (MIC) (S. marcescens TH-0447) [mg/L] | minimal inhibitory concentration (MIC) (S. aureus RN4220) [mg/L] | minimal inhibitory concentration (MIC) [1] [mg/L] | minimal inhibitory concentration (MIC) (S. aureus MF490) [mg/L] | minimal inhibitory concentration (MIC) (S. aureus RN4220/pMS520) [mg/L] | minimal inhibitory concentration (MIC) (E. faecium ATCC19434) [mg/L] | minimal inhibitory concentration (MIC) (P. aeruginosa MSC01035) [mg/L] | minimal inhibitory concentration (MIC) [2] [mg/L] | minimal inhibitory concentration (MIC) (E. coli JM109/pMW218) [mg/L] | minimal inhibitory concentration (MIC) [3] [mg/L] | minimal inhibitory concentration (MIC) (P. aeruginosa PAO1/GN315) [mg/L] | MIC (S. marcescens GN6944) [mg/L] | MIC (P. aeruginosa MSC17707) [mg/L] | MIC (P. aeruginosa PAO1) [mg/L] | MIC (S. marcescens TH-0447) [mg/L] | MIC (S. aureus RN4220) [mg/L] | MIC [1] [mg/L] | also measured
1 | CN[C@@H]1[C@@H](O[C@H]2O[C@H](CO)[C@@H](N)[C@H](O)[C@H]2O)O[C@H]2C[C@@H](N)[C@@H](O[C@H]3[C@@H](F)[C@H](N)[C@H](N)C[C@@H]3N)O[C@@H]2[C@@H]1O [Compound F3, 6-amino-5,6-dideoxy-5,6-diepi-5-fluoroapramycin] | 16 (≈ 29.6 µM) | 16 (≈ 29.6 µM) | 16 (≈ 29.6 µM) | 16 (≈ 29.6 µM) | 8 (≈ 14.8 µM) | 4 (≈ 7.4 µM) | 32 (≈ 59.2 µM) | 8 (≈ 14.8 µM) | 64 (≈ 118 µM) | 32 (≈ 59.2 µM) | 4 (≈ 7.4 µM) | 8 (≈ 14.8 µM) | 16 (≈ 29.6 µM) | 16 (≈ 29.6 µM) |  |  |  |  |  |  | 
2 | CNC1C(O[C@H]2OC(C)[C@@H](N)[C@H](O)C2O)O[C@H]2CC(N)[C@@H](O[C@H]3CC(O)[C@H](N)CC3N)OC2C1O (stereo partly shown) [Compound L5, 5,6″-dideoxyapramycin] |  |  |  |  |  |  |  |  |  |  |  |  |  |  | 4 (≈ 7.88 µM) | 8 (≈ 15.8 µM) | 4 (≈ 7.88 µM) | 4 (≈ 7.88 µM) | 2 (≈ 3.94 µM) | 1 (≈ 1.97 µM) | MIC (S. aureus MF490): 4 mg/L (≈ 7.88 µM); MIC (S. aureus RN4220/pMS520): 1 mg/L (≈ 1.97 µM); MIC (E. faecium ATCC19434): 8 mg/L (≈ 15.8 µM); MIC (P. aeruginosa MSC01035): 8 mg/L (≈ 15.8 µM); MIC [2]: 1 mg/L (≈ 1.97 µM); MIC (E. coli JM109/pMW218): 1 mg/L (≈ 1.97 µM); MIC [3]: 8 mg/L (≈ 15.8 µM); MIC (P. aeruginosa PAO1/GN315): 4 mg/L (≈ 7.88 µM)
3 | CNCC(=O)N[C@@H]1C(CO)O[C@H](OC2O[C@H]3C[C@H](N)[C@@H](O[C@@H]4C(N)C[C@@H](N)C[C@H]4O)OC3C(O)C2NC)C(O)[C@H]1O (stereo partly drawn) [Compound V1-p, 6-deoxy-5-epi-4″-N-sarcosylapramycin] |  |  |  |  |  |  |  |  |  |  |  |  |  |  | 4 (≈ 6.73 µM) | 2 (≈ 3.36 µM) | 2 (≈ 3.36 µM) | 8 (≈ 13.5 µM) | 1 (≈ 1.68 µM) | 1 (≈ 1.68 µM) | MIC (S. aureus MF490): 4 mg/L (≈ 6.73 µM); MIC (S. aureus RN4220/pMS520): 1 mg/L (≈ 1.68 µM); MIC (E. faecium ATCC19434): 8 mg/L (≈ 13.5 µM); MIC (P. aeruginosa MSC01035): 4 mg/L (≈ 6.73 µM); MIC [2]: 1 mg/L (≈ 1.68 µM); MIC (E. coli JM109/pMW218): 1 mg/L (≈ 1.68 µM); MIC [3]: 4 mg/L (≈ 6.73 µM); MIC (P. aeruginosa PAO1/GN315): 4 mg/L (≈ 6.73 µM)
4 | CNC1C(OC2OC(CO)C(NC(=N)N)CC2O)OC2CC(N)C(OC3C(N)CC(N)C(O)C3O)OC2C1O (stereo not drawn) [Compound X4-a, 4″-deamino-3″-deoxy-5-epi-4″-guanidinoapramycin] | 4 (≈ 7.07 µM) | 8 (≈ 14.1 µM) | 4 (≈ 7.07 µM) | 4 (≈ 7.07 µM) | 1 (≈ 1.77 µM) | 1 (≈ 1.77 µM) | 4 (≈ 7.07 µM) | 1 (≈ 1.77 µM) | 8 (≈ 14.1 µM) | 8 (≈ 14.1 µM) | 1 (≈ 1.77 µM) | 0.5 (≈ 0.884 µM) | 4 (≈ 7.07 µM) | 4 (≈ 7.07 µM) |  |  |  |  |  |  | 
5 | CN[C@@H]1[C@@H](O[C@H]2O[C@H](CO)[C@@H](NC(=N)N)[C@H](O)[C@H]2O)O[C@H]2C[C@@H](N)[C@@H](O[C@H]3[C@@H](O)[C@@H](O)[C@H](N)C[C@@H]3N)O[C@@H]2[C@@H]1O [Compound S1-j, 4″-deamino-5-epi-4″-guanidinoapramycin] | 4 (≈ 6.88 µM) | 4 (≈ 6.88 µM) | 2 (≈ 3.44 µM) | 4 (≈ 6.88 µM) | 2 (≈ 3.44 µM) | 1 (≈ 1.72 µM) | 4 (≈ 6.88 µM) | 1 (≈ 1.72 µM) | 8 (≈ 13.8 µM) | 4 (≈ 6.88 µM) | 1 (≈ 1.72 µM) | 0.5 (≈ 0.86 µM) | 4 (≈ 6.88 µM) | 4 (≈ 6.88 µM) |  |  |  |  |  |  | 
